{"source": "ChEMBL document CHEMBL5705887", "about": "“Distinct concentration-dependent effects of the polo-like kinase 1-specific inhibitor GSK461364A, including differential effect on apoptosis” (Cancer Res, 2009)", "key": {"SK-MEL-28": {"test_system": "SK-MEL-28", "experiment": "Antiproliferative activity against human SK-MEL-28 cells assessed as growth inhibition incubated for 72 hrs by celltiter-glo assay", "format": "functional"}, "[1]": {"target": "Testis-specific serine/threonine-protein kinase 1 (Homo sapiens) (UniProt Q9BXA7)", "sequence (Q9BXA7 whole entry)": "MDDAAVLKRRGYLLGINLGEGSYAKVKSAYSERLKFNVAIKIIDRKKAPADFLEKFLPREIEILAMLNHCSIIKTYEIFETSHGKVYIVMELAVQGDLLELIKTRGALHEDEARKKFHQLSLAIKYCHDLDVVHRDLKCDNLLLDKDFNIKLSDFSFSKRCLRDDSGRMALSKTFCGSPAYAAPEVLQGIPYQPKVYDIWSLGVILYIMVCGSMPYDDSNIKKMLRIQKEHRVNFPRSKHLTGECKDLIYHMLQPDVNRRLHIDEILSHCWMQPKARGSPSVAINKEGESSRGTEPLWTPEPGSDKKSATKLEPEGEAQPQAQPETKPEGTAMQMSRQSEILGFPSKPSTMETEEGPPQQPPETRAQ", "experiment": "Inhibition of full length his6-tagged recombinant human TSSK1 expressed in baculovirus Sf21 insect cells at 10 uM relative to control"}, "A2780": {"test_system": "A2780", "experiment": "Antiproliferative activity against human A2780 cells assessed as of viable cell signal at minimum maximum cell growth incubated for 72 hrs by celltiter-glo assay relative to control", "format": "functional"}, "A-431": {"test_system": "A-431", "experiment": "Antiproliferative activity against human A-431 cells assessed as of viable cell signal at minimum maximum cell growth incubated for 72 hrs by celltiter-glo assay relative to control", "format": "functional"}, "Calu-1": {"test_system": "Calu-1", "experiment": "Antiproliferative activity against human Calu-1 cells assessed as growth inhibition incubated for 72 hrs by celltiter-glo assay", "format": "functional"}, "T47D": {"test_system": "T47D", "experiment": "Antiproliferative activity against human T47D cells assessed as growth inhibition incubated for 72 hrs by celltiter-glo assay", "format": "functional"}, "[2]": {"target": "Calcium/calmodulin-dependent protein kinase type II subunit gamma (Homo sapiens) (UniProt Q13555)", "sequence (Q13555 whole entry)": "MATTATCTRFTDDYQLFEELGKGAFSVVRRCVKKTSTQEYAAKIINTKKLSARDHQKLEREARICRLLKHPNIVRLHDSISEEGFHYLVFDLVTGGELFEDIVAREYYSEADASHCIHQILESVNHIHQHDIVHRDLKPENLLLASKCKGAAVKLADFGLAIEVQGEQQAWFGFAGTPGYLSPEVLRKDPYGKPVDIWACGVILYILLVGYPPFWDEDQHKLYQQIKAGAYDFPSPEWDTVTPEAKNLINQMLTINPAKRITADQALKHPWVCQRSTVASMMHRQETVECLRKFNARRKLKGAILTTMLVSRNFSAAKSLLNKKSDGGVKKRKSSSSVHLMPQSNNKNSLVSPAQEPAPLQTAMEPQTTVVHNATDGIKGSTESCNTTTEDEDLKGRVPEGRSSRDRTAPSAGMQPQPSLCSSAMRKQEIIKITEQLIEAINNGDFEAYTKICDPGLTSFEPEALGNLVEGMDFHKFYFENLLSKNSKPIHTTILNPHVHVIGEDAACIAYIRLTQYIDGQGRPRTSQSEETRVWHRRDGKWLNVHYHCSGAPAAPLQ", "experiment": "Inhibition recombinant human CAMKII-gamma at 10 uM relative to control"}, "A-427 [3]": {"test_system": "A-427", "experiment": "Antiproliferative activity against human A-427 cells assessed as of viable cell signal at minimum maximum cell growth incubated for 72 hrs by celltiter-glo assay relative to control", "format": "functional"}, "HT-1080": {"test_system": "HT-1080", "experiment": "Antiproliferative activity against human HT-1080 cells assessed as growth inhibition incubated for 72 hrs by celltiter-glo assay", "format": "functional"}, "NCI-H1299": {"test_system": "NCI-H1299", "experiment": "Antiproliferative activity against human NCI-H1299 cells assessed as viable cell signal at maximum growth inhibition incubated for 72 hrs by celltiter-glo assay relative to control", "format": "functional"}, "HT-29": {"test_system": "HT-29", "experiment": "Antiproliferative activity against human HT-29 cells assessed as growth inhibition incubated for 72 hrs by celltiter-glo assay", "format": "functional"}, "A-427 [4]": {"test_system": "A-427", "experiment": "Antiproliferative activity against human A-427 cells assessed as viable cell signal at maximum growth inhibition incubated for 72 hrs by celltiter-glo assay relative to control", "format": "functional"}, "[5]": {"target": "Cytoplasmic tyrosine-protein kinase BMX (Homo sapiens) (UniProt P51813)", "sequence (P51813 whole entry)": "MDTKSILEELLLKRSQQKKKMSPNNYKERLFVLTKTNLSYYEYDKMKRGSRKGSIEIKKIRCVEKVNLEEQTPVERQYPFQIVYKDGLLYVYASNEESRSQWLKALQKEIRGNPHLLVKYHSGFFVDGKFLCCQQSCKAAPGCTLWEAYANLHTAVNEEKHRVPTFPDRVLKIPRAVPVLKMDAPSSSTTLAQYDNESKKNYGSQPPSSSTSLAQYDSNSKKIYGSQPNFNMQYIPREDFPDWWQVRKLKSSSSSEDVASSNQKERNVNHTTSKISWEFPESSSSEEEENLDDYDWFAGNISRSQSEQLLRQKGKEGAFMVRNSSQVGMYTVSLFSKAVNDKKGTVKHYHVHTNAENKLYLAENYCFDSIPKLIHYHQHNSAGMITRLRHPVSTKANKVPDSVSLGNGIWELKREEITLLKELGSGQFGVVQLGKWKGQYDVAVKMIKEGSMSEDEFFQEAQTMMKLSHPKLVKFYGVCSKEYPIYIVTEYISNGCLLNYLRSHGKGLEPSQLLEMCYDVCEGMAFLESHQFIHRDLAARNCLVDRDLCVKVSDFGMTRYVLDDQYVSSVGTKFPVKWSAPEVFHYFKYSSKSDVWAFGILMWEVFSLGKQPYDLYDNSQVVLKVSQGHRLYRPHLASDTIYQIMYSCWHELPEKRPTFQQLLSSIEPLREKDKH", "experiment": "Inhibition of N-terminal his6-tagged recombinant human BMX expressed in baculovirus Sf21 insect cells at 10 uM relative to control"}, "Calu-3 [6]": {"test_system": "Calu-3", "experiment": "Antiproliferative activity against human Calu-3 cells assessed as growth inhibition incubated for 72 hrs by celltiter-glo assay", "format": "functional"}, "SK-BR-3": {"test_system": "SK-BR-3", "experiment": "Antiproliferative activity against human SK-BR-3 cells assessed as of viable cell signal at minimum maximum cell growth incubated for 72 hrs by celltiter-glo assay relative to control", "format": "functional"}, "NCI-H322M": {"test_system": "NCI-H322M", "experiment": "Antiproliferative activity against human NCI-H322M cells assessed as viable cell signal at maximum growth inhibition incubated for 72 hrs by celltiter-glo assay relative to control", "format": "functional"}, "SK-MEL-2": {"test_system": "SK-MEL-2", "experiment": "Antiproliferative activity against human SK-MEL-2 cells assessed as of viable cell signal at minimum maximum cell growth incubated for 72 hrs by celltiter-glo assay relative to control", "format": "functional"}, "MDA-MB-453": {"test_system": "MDA-MB-453", "experiment": "Antiproliferative activity against human MDA-MB-453 cells assessed as growth inhibition incubated for 72 hrs by celltiter-glo assay", "format": "functional"}, "H322": {"test_system": "H322", "experiment": "Antiproliferative activity against human H322 cells assessed as growth inhibition incubated for 72 hrs by celltiter-glo assay", "format": "functional", "settings": "NCI-H322"}, "COLO 205": {"test_system": "COLO 205", "experiment": "Antitumor activity against human COLO 205 cells xenografted in Nude mouse assessed as increase in pIk1 level at 50 mg/kg, ip measured at 24 hrs by immunohistochemistry analysis", "format": "functional, organism-based"}, "A704": {"test_system": "A704", "experiment": "Antiproliferative activity against human A704 cells assessed as of viable cell signal at minimum maximum cell growth incubated for 72 hrs by celltiter-glo assay relative to control", "format": "functional"}, "[7]": {"target": "Serine/threonine-protein kinase D1 (Homo sapiens) (UniProt Q15139)", "sequence (Q15139 whole entry)": "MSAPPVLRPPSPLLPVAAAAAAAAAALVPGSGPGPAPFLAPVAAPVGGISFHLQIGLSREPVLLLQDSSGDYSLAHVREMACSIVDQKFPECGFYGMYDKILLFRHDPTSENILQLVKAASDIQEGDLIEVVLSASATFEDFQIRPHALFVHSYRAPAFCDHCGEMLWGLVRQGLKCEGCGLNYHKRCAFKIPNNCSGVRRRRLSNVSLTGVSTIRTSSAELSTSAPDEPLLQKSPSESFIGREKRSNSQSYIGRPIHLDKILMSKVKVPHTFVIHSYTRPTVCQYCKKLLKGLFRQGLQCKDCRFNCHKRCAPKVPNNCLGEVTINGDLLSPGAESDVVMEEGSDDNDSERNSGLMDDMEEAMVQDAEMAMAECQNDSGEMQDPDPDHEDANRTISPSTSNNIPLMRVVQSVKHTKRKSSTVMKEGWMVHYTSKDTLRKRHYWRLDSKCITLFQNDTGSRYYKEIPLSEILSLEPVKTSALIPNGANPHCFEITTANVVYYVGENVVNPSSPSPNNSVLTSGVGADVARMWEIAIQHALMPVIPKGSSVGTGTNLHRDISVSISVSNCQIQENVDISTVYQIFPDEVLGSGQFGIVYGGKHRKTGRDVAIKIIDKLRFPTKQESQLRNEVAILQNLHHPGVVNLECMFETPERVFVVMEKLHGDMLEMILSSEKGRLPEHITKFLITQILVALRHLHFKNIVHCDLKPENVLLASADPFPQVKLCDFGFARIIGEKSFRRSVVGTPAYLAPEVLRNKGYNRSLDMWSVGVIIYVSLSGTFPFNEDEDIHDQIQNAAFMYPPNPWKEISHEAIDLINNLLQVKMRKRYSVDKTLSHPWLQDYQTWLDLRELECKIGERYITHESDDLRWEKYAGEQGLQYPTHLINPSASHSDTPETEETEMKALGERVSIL", "experiment": "Inhibition of recombinant human PKC-mu at 10 uM relative to control"}, "RPMI-8226 [8]": {"test_system": "RPMI-8226", "experiment": "Antiproliferative activity against human RPMI-8226 cells assessed as growth inhibition incubated for 72 hrs by celltiter-glo assay", "format": "functional"}, "[9]": {"experiment": "Cytotoxicity against human HUVEC cells assessed as inhibition of cell growth incubated for 72 hrs by celltiter-glo assay", "format": "toxicity, cell-based"}, "SW-620": {"test_system": "SW-620", "experiment": "Antiproliferative activity against human SW620 cells assessed as growth inhibition incubated for 72 hrs by celltiter-glo assay", "format": "functional"}, "RPMI-8226 [10]": {"test_system": "RPMI-8226", "experiment": "Antiproliferative activity against human RPMI-8226 cells assessed as of viable cell signal at minimum maximum cell growth incubated for 72 hrs by celltiter-glo assay relative to control", "format": "functional"}, "SK-MEL-5 [11]": {"test_system": "SK-MEL-5", "experiment": "Antiproliferative activity against human SK-MEL-5 cells assessed as of viable cell signal at minimum maximum cell growth incubated for 72 hrs by celltiter-glo assay relative to control", "format": "functional"}, "HL-60": {"test_system": "HL-60", "experiment": "Antiproliferative activity against human HL-60 cells assessed as growth inhibition incubated for 72 hrs by celltiter-glo assay", "format": "functional"}, "THP-1": {"test_system": "THP-1", "experiment": "Antiproliferative activity against human THP-1 cells assessed as of viable cell signal at minimum maximum cell growth incubated for 72 hrs by celltiter-glo assay relative to control", "format": "functional"}, "HCC1937 [12]": {"test_system": "HCC1937", "experiment": "Antiproliferative activity against human HCC1937 cells assessed as viable cell signal at maximum growth inhibition incubated for 72 hrs by celltiter-glo assay relative to control", "format": "functional"}, "A549": {"test_system": "A549", "experiment": "Induction of mitotic arrest in human A549 cells assessed as disordered spindle formation at 20 nmol/L incubated for 16 hrs by alpha-tubulin/DAPI staining based confocal microscopic analysis", "format": "functional, cell-based"}, "HeLa": {"test_system": "HeLa", "experiment": "Antiproliferative activity against human HeLa cells assessed as viable cell signal at maximum growth inhibition incubated for 72 hrs by celltiter-glo assay relative to control", "format": "functional"}, "NCI-H727": {"test_system": "NCI-H727", "experiment": "Antiproliferative activity against human NCI-H727 cells assessed as of viable cell signal at minimum maximum cell growth incubated for 72 hrs by celltiter-glo assay relative to control", "format": "functional"}, "SK-MEL-5 [13]": {"test_system": "SK-MEL-5", "experiment": "Antiproliferative activity against human SK-MEL-5 cells assessed as viable cell signal at maximum growth inhibition incubated for 72 hrs by celltiter-glo assay relative to control", "format": "functional"}, "MDA-MB-468": {"test_system": "MDA-MB-468", "experiment": "Antiproliferative activity against human MDA-MB-468 cells assessed as growth inhibition incubated for 72 hrs by celltiter-glo assay", "format": "functional"}, "HCC1937 [14]": {"test_system": "HCC1937", "experiment": "Antiproliferative activity against human HCC1937 cells assessed as of viable cell signal at minimum maximum cell growth incubated for 72 hrs by celltiter-glo assay relative to control", "format": "functional"}, "Calu-3 [15]": {"test_system": "Calu-3", "experiment": "Antiproliferative activity against human Calu-3 cells assessed as of viable cell signal at minimum maximum cell growth incubated for 72 hrs by celltiter-glo assay relative to control", "format": "functional"}, "ZR-75-1": {"test_system": "ZR-75-1", "experiment": "Antiproliferative activity against human ZR-75-1 cells assessed as growth inhibition at 10 to 250 nmol/L incubated for 72 hrs by celltiter-glo assay", "format": "functional, cell-based", "settings": "dose 10-250 nmol/L"}, "NCI-N87": {"test_system": "NCI-N87", "experiment": "Antiproliferative activity against human NCI-N87 cells assessed as of viable cell signal at minimum maximum cell growth incubated for 72 hrs by celltiter-glo assay relative to control", "format": "functional"}, "NCI-H157": {"test_system": "NCI-H157", "experiment": "Antiproliferative activity against human NCI-H157 cells assessed as growth inhibition incubated for 72 hrs by celltiter-glo assay", "format": "functional"}, "PC-3": {"test_system": "PC-3", "experiment": "Antiproliferative activity against human PC-3 cells assessed as of viable cell signal at minimum maximum cell growth incubated for 72 hrs by celltiter-glo assay relative to control", "format": "functional"}}, "note": "Calls of active or inactive are those of the source. No cut-off for these calls is given here."}
{"smiles": "C[C@@H](Oc1cc(-n2cnc3ccc(CN4CCN(C)CC4)cc32)sc1C(N)=O)c1ccccc1C(F)(F)F", "note": "[GSK-461364]", "values": [{"measurement": "GI50", "setting": "SK-MEL-28", "value": 381, "unit": "nM"}, {"measurement": "inhibition", "setting": "[1]", "value": 61, "unit": "%"}, {"measurement": "Emin", "setting": "A2780", "value": 68.5, "unit": "%"}, {"measurement": "Emin", "setting": "A-431", "value": 151.5, "unit": "%"}, {"measurement": "GI50", "setting": "Calu-1", "value": 186, "unit": "nM"}, {"measurement": "GI50", "setting": "T47D", "value": 9160, "unit": "nM"}, {"measurement": "inhibition", "setting": "[2]", "value": 84, "unit": "%"}, {"measurement": "Emin", "setting": "A-427 [3]", "value": 15.4, "unit": "%"}, {"measurement": "GI50", "setting": "HT-1080", "value": 24.6, "unit": "nM"}, {"measurement": "Emax", "setting": "NCI-H1299", "value": 495, "unit": "%"}, {"measurement": "GI50", "setting": "HT-29", "value": 8.1, "unit": "nM"}, {"measurement": "Emax", "setting": "A-427 [4]", "value": 218, "unit": "%"}, {"measurement": "inhibition", "setting": "[5]", "value": 57, "unit": "%"}, {"measurement": "GI50", "setting": "Calu-3 [6]", "value": 35.6, "unit": "nM"}, {"measurement": "Emin", "setting": "SK-BR-3", "value": 54.6, "unit": "%"}, {"measurement": "Emax", "setting": "NCI-H322M", "value": 611, "unit": "%"}, {"measurement": "Emin", "setting": "SK-MEL-2", "value": 71.3, "unit": "%"}, {"measurement": "GI50", "setting": "MDA-MB-453", "value": 13.4, "unit": "nM"}, {"measurement": "GI50", "setting": "H322", "value": 20.2, "unit": "nM"}, {"measurement": "Activity", "setting": "COLO 205", "value": "Active"}, {"measurement": "Emin", "setting": "A704", "value": 3.2, "unit": "%"}, {"measurement": "inhibition", "setting": "[7]", "value": 53, "unit": "%"}, {"measurement": "GI50", "setting": "RPMI-8226 [8]", "value": 22.5, "unit": "nM"}, {"measurement": "IC50 at 72 h", "setting": "[9]", "value": 7, "unit": "nM"}, {"measurement": "GI50", "setting": "SW-620", "value": 6.6, "unit": "nM"}, {"measurement": "Emin", "setting": "RPMI-8226 [10]", "value": 34.6, "unit": "%"}, {"measurement": "Emin", "setting": "SK-MEL-5 [11]", "value": 84, "unit": "%"}, {"measurement": "GI50", "setting": "HL-60", "value": 17.5, "unit": "nM"}, {"measurement": "Emin", "setting": "THP-1", "value": 60.3, "unit": "%"}, {"measurement": "Emax", "setting": "HCC1937 [12]", "value": 240, "unit": "%"}, {"measurement": "Activity", "setting": "A549", "value": "Active"}, {"measurement": "Emax", "setting": "HeLa", "value": 406, "unit": "%"}, {"measurement": "Emin", "setting": "NCI-H727", "value": 158.9, "unit": "%"}, {"measurement": "Emax", "setting": "SK-MEL-5 [13]", "value": 258, "unit": "%"}, {"measurement": "GI50", "setting": "MDA-MB-468", "value": 6.35, "unit": "nM"}, {"measurement": "Emin", "setting": "HCC1937 [14]", "value": 100, "unit": "%"}, {"measurement": "Emin", "setting": "Calu-3 [15]", "value": 115.6, "unit": "%"}, {"measurement": "Activity", "setting": "ZR-75-1", "value": "inactive"}, {"measurement": "Emin", "setting": "NCI-N87", "value": 321.5, "unit": "%"}, {"measurement": "GI50", "setting": "NCI-H157", "value": 25.2, "unit": "nM"}, {"measurement": "Emin", "setting": "PC-3", "value": 385.1, "unit": "%"}]}
